The text below walks through data of US10945994B2, “Combinations comprising a pyrrolidine-2,5-dione IDO1 inhibitor and an anti-body” (Pfizer Inc., priority 2015, dated 2021).

A value given as a limit tells only on which side of the number the result lay.

Test [1] addresses T1, TDO2 (Homo sapiens (Human), UniProt P48775). Put plainly: Human TDO2 enzymatic assay. The class given is biochemical. The method, then:
The protocol was adapted from Dolusic et al, 2011. Briefly, the reaction mixture ([…]) contained TRIS buffer (50 mM, pH 7.5), methylene blue (0.125 mM), ascorbic acid (0.25 M), catalase (40 units/mL) and human recombinant TDO2 enzyme (prepared as described in Dolusic et al, 2011; 0.9 mg) with increasing concentrations of compounds (1.0 nM to […]). The reaction was run with single replicate. The reaction was initiated by the addition of the substrate L-tryptophan (1 mM).

Test [2] concerns the target T2, IDO1 (Homo sapiens (Human), UniProt P14902). As to the kind of experiment: IDO1 enzymatic activity by mass spectrometry assay. The test is classed as biochemical. Conditions: human enzyme; varied tryptophan and inhibitor concentrations. The method, then:
(§1) The full length complementary deoxyribonucleic acid (cDNA) for human IDO1 was cloned into a pFastbac-1 based vector and the full length cDNA for mouse and dog was cloned into a pET24a based vector. […] Human IDO1 was expressed in insect cells and purified using Ni affinity column. The mouse and dog IDO1 were expressed in Escherichia coli BL21 (DE3) and purified using a Ni affinity column. To obtain non-tagged, pure, and hemin loaded IDO1, TEV protease treated and tag removed protein was incubated with 10× molar ratio of hemin (dissolved in 25 mM NaOH) to protein at 4° C. overnight followed by size exclusion chromatography (SEC) for human IDO1 and anion exchange and SEC for mouse and dog IDO1.
The inhibition of human, dog and mouse IDO1 was measured by quantitating tryptophan and the generation of kynurenine by MS. […] The HCl stops the enzyme reactions and also converts the N-formyl kynurenine to kynurenine. […] Detection of tryptophan and kynurenine was accomplished following injection of assay reaction (injection loop volume is 10 μL) onto an Agilent Graphite Type D cartridge in 0.01% trifluoroacetic acid (TFA) plus 0.09% formic acid and eluted using 80% acetonitrile, 0.09% formic acid and 0.01% TFA. […]

The target of a further test is mouse TDO2 (Mus musculus (Mouse), UniProt P48776). As to the kind of experiment: TDO2 activity assay in P815 mouseTDO2 clone 12 cells. The class given is cell-based. The method, then:
P815 mTDO2 c112 cells were generated as described in Pilotte et al, Proc Natl Acad Sci, 109(7): 2497-2502 (2012). They were seeded in 96-well plates (50,000 cells/well), treated with increasing concentrations of compounds and incubated for 16-18 h. Kynurenine concentrations were determined as described above. The reaction was run with single replicate.

The next test addresses dog IDO1 (Canis lupus familiaris, UniProt A0A8I3N1Y1). As to the kind of experiment: IDO1 enzymatic activity by mass spectrometry assay. The test is classed as biochemical. Conditions: dog enzyme; varied tryptophan and inhibitor concentrations. As for the experimental part: as §1
(§2) The inhibition of human, dog and mouse IDO1 was measured by quantitating tryptophan and the generation of kynurenine by MS. IDO1 enzyme (1 nM) was incubated with various concentrations of the inhibitor ([…] to 1 nM), in duplicate, at room temperature in […] buffer (Mg2+, Ca2+−PBS, 20 mM ascorbic acid, 10 mM methylene blue, 800 nM catalase, […]). […] The HCl stops the enzyme reactions and also converts the N-formyl kynurenine to kynurenine. […] Detection of tryptophan and kynurenine was accomplished following injection of assay reaction (injection loop volume is 10 μL) onto an Agilent Graphite Type D cartridge in 0.01% trifluoroacetic acid (TFA) plus 0.09% formic acid and eluted using 80% acetonitrile, 0.09% formic acid and 0.01% TFA. The finalized RapidFire settings were as follows: aspiration time: 600 ms or until the loop is full per the sip sensor, load time: 5000 ms, elution time: 5000 ms, and re-equilibration time: 500 ms at a flow rate of 1.5 mL/min.

The target of a further test is mouse IDO1 (Mus musculus (Mouse), UniProt P28776). Put plainly: IDO1 enzymatic activity by mass spectrometry assay. The test is classed as biochemical. Conditions: MS assay; geometric mean (95% confidence interval); read-out: Enzyme Activity IC50 mouse IDO1. As for the experimental part: as §1, §2
Chain of mouse IDO1 (P28776 whole entry): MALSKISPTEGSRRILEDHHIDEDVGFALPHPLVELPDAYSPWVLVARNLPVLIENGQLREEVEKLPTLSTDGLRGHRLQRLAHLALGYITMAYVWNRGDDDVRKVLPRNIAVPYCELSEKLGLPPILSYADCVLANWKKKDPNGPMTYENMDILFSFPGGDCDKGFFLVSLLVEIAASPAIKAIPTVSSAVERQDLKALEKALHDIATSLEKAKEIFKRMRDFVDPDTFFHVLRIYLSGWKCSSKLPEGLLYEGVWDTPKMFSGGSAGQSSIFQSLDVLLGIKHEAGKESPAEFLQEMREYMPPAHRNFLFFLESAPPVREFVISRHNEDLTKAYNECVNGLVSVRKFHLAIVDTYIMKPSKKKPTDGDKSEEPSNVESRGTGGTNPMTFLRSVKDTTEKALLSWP
Test [3] concerns the target T1, TDO2. Put plainly: TDO2 activity assay in A172 and THP-1 cells. The test is classed as cell-based. As for the experimental part: A172 cells were seeded in 96-well plates (12500 cells/well), treated with increasing concentrations of compounds and incubated for 16-18 h at 37° C., 5% CO2. Then TCA was added to the supernatant to stop the reaction. […] Kynurenine concentrations were determined by measuring absorbance at 480 nm. The reaction was run with single replicate.
THP-1 cells were stimulated with 2 ng/ml PMA for 24 h, then seeded in 96-well plates (100,000 cells/well), treated with 2 ng/ml PMA and increasing concentrations of compounds, and incubated for 24 h. Kynurenine concentrations were determined as described above. The reaction was run with single replicate.

The test system of test [4] is PancO2 pancreas cancer cells. Put plainly: PancO2 syngeneic model survival, combination with anti-CTLA4 antibody. The class given is in vivo, C57/Bl6 mice. Conditions: dead when tumor size reached 400 mm^3, anti-CTLA4 200 μg i.p., Compound 2 100 mg/kg BID. The method, then: In vivo efficacy studies of IDO1 inhibitor were performed on PancO2 syngeneic tumor model of C57/Bl6 mice implanted sub-cutaneously essentially as described in Example II.5. Five million PancO2 pancreas cancer cells were implanted sub-cutaneously to 7 weeks old C57/Bl6 mice (day 0). […] Anti-CTLA4 (Clone 9 h10, 200 μg/mouse, i.p. in PBS) was administered at day 11, 14 and 17. […] Treatment was administered daily until the end of the study. Tumor volume was measured weekly using a caliper device and calculated with the following formula: Tumor volume=0.5×(length×width^2). Mice were considered as dead when tumor size reached 400 mm^3.

Test [5] deals with IDO1-expressing SKOV3 cells co-cultured with human PBMC. As to the kind of experiment: T cell - SKOV3 co-culture assay with human serum (II.9). The test is classed as cell-based. Conditions: SK-OV-3, read-out: T-cell proliferation in SKOV3 co-culture system (50% serum) IDO1 IC50 ± SD (n). The method, then: Three different concentrations of human serum (10%, 25% or 50%) were used to mimic the consequences of protein binding in human. […] T cell proliferation was measured by incorporation of ^3H-thymidine after 48 h of co-culture. IC50 of T cell proliferation, tryptophan (Trp) decrease and kynurenine (Kyn) increase were determined. FIG. 7D illustrates Trp to Kyn conversion in 10% HS. […] FIG. 7F illustrates Trp to Kyn conversion in 50% HS. Tryptophan and kynurenine concentrations in supernatant were assessed using LC-MS/MS after 24 h of co-culture. […]
Human peripheral blood mononuclear cells were isolated from buffy coats, purified by density gradient centrifugation on Lymphoprep™ (StemCell), stimulated with CD3/CD28 beads (Invitrogen) and hIL-2 (Novartis) in IMDM with 10%, 25% or 50% of HS, for 15 min and then added to the SKOV3 plates. […] After an incubation of 24 h, the tryptophan and kynurenine concentrations in conditioned medium were assessed using LC-MS/MS. ^3H-thymidine was added to the co-cultures for another 24 h incubation period. Thymidine incorporation was measured using a TopCount counter (Perkin Elmer). Data were fitted and IC50 determined by using the Prism™ software (GraphPad software Inc.).

Test [6] addresses T2, IDO1. As to the kind of experiment: Human whole blood assay (+ IFNγ/LPS). The class given is cell-based. Conditions: conversion with unbound fraction in whole blood 0.419; read-out: unbound IC90, human whole blood.
Protocol: Human whole blood was collected in sodium heparin and gently mixed. Then 25 mg/mL LPS (Sigma) and 100 ng/mL. IFNg (R&D) was added and transferred immediately to a 96-well U bottom plate, 200 mL per well. […] The final DMSO concentration was 0.5%. Following overnight incubation at 37° C., a 30 mL aliquot was precipitated with 270 mL acetonitrile/HPLC water (70:30), vortexed vigorously, and centrifuged at 3220×g for 15 minutes at 10° C. An aliquot of the supernatant organic solution was diluted in 0.1% Formic acid and spiked with stable labeled isotopes of kynurenine and tryptophan as internal standards prior to analysis. Kynurenine inhibition was determined by dividing the drug treated internal standard adjusted kynurenine counts by the positive control internal standard adjusted value. The no drug treated sample containing DMSO was used as the positive control. […] The IC50 and IC90 calculations were conducted in GraphPad Prism version 6.03.
In order to determine compound potency in a human cellular system, human whole blood was collected from 9 subjects. […] The unbound inhibitor IC50 and IC90 values were computed by applying a conversion for the unbound fraction value in whole blood, 0.419.
The subject of a further test is CT26 tumors. As to the kind of experiment: CT26 syngeneic colon tumor model, combination with avelumab. The class given is in vivo, Balb/c mice. The text has this: FIGS. 5A-5E show combinatorial anti-tumor effects of an IDO1 inhibitor and an anti-PD-L1 (avelumab) in the sc CT26 syngeneic mouse colon tumor model in Balb/c mice. […] FIGS. 5B-5E show the individual tumor growth curves.
Avelumab is a fully human anti-PD-L1 IgG1 monoclonal antibody, and thus, is not optimized for mouse.

The mark [7] stands for this setting: Compound 1 200 mg/kg BID, Avelumab 10 mg/kg.

T1 sequence (P48775 whole entry): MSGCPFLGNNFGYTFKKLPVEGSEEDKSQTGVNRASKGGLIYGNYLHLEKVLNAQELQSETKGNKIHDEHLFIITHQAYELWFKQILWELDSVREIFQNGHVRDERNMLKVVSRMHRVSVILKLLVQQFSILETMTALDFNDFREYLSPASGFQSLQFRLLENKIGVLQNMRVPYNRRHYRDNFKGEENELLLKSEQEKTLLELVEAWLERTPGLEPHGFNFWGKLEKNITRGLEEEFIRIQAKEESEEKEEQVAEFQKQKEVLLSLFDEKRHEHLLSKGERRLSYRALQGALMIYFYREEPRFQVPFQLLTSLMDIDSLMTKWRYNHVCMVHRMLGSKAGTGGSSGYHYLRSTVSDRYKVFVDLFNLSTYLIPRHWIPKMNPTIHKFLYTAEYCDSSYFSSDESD
T2 sequence (P14902 whole entry): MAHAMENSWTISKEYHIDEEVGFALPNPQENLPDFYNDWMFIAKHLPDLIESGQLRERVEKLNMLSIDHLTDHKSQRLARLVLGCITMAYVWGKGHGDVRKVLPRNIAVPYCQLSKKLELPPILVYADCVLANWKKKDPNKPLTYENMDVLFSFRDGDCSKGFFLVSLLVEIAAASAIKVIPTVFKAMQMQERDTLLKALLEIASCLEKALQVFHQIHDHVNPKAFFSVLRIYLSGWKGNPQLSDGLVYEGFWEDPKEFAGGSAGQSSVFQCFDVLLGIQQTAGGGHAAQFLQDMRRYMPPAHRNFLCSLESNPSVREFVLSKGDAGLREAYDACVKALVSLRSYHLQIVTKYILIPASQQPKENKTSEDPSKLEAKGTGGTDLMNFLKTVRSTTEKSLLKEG
Chain of mouse TDO2 (P48776 whole entry): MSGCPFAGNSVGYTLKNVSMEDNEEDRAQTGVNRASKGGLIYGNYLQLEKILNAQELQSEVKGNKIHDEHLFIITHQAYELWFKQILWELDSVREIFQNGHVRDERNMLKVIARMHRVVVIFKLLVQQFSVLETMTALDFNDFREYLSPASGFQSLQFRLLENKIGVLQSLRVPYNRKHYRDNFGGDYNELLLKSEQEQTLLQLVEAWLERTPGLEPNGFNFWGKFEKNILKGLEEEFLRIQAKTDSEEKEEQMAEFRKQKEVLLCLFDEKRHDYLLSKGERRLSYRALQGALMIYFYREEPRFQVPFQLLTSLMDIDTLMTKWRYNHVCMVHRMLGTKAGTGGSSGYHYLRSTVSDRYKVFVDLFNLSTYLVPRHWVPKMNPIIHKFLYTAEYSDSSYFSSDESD
Chain of dog IDO1 (A0A8I3N1Y1 1-402): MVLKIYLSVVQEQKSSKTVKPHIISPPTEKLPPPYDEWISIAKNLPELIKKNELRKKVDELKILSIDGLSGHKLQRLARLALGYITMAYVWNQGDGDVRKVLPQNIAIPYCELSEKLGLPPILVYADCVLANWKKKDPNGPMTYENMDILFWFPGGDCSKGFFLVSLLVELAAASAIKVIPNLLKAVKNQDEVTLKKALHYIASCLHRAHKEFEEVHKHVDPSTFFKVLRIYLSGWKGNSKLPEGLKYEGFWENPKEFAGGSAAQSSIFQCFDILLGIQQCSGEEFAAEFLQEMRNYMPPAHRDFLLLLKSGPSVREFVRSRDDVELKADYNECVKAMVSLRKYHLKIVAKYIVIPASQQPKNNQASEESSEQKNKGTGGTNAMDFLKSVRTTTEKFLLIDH

Take `O=C1C[C@H](c2c[nH]c3ccc(F)cc23)C(=O)N1` [Compound 2, (−)-(R)-3-(5-fluoro-1H-indol-3-yl)pyrrolidine-2,5-dione]: the IC50 against TDO2 [1] is over 50 µM; against mouse TDO2, over 50 µM; on mouse IDO1 it was 0.73 µM; in test [5], 0.08 ± 0.05 µM. The “mechanism of inhibition, preferred model fit” value on IDO1 [2] is recorded as “uncompetitive inhibition”; on dog IDO1, “noncompetitive inhibition”. In addition, the “A172 and THP-1 cells TDO2 inhibition” value on TDO2 [3] (@50 μM) is “no inhibition”. The “inhibitory activity in any of the human or mouse TDO2 assays” value at TDO2 [3] (human biochemical and cellular, murine cellular, concentrations of up to 50 μM) is listed as “did not display any significant inhibitory activity”. Further, in test [4], the “% Survival at Day 55” value is recorded as 0%. Besides, the concentration for an effect of 90% (IC90) at IDO1 [6] came out at 5.69 µM.

As to “Avelumab: fully human anti-PD-L1 IgG1 monoclonal antibody”, the “tumor growth inhibition (TGI), summary” value in the test with CT26 tumors is “about 50%”. Also, in the test on CT26 tumors (setting [7]), the “% TGI (D15)” value worked out at 54%, the “% TGI (D17)” value was found to be 59% and the “% TGI (D20)” value is listed as 51%.
